Test results taken from ChEMBL document CHEMBL4507265 (2021).

Columns and labels:
[1] = biological target: Myotonin-protein kinase (Homo sapiens) (UniProt Q09013); conditions: Compound concentration 1000.0 nM
[2] = biological target: Serine/threonine-protein kinase 17B (Homo sapiens) (UniProt O94768); conditions: Compound concentration 1000.0 nM
[3] = biological target: Mitogen-activated protein kinase kinase kinase kinase 2 (Homo sapiens) (UniProt Q12851); conditions: Compound concentration 1000.0 nM
[4] = biological target: Cyclin-dependent kinase 13 (Homo sapiens) (UniProt Q14004); conditions: Compound concentration 1000.0 nM
[5] = biological target: Non-receptor tyrosine-protein kinase TNK1 (Homo sapiens) (UniProt Q13470); conditions: Compound concentration 1000.0 nM
[6] = biological target: Myosin light chain kinase 2, skeletal/cardiac muscle (Homo sapiens) (UniProt Q9H1R3); conditions: Compound concentration 1000.0 nM
[7] = biological target: Ephrin type-A receptor 4 (Homo sapiens) (UniProt P54764); conditions: Compound concentration 1000.0 nM
[8] = biological target: Glycogen synthase kinase-3 alpha (Homo sapiens) (UniProt P49840); conditions: Compound concentration 1000.0 nM
[9] = biological target: cGMP-dependent protein kinase 2 (Homo sapiens) (UniProt Q13237); conditions: Compound concentration 1000.0 nM
[10] = biological target: Non-receptor tyrosine-protein kinase TYK2 (Homo sapiens) (UniProt P29597); conditions: Compound concentration 1000.0 nM
[11] = system: Proto-oncogene tyrosine-protein kinase receptor Ret (Homo sapiens), P07949 [V804L]; conditions: Compound concentration 1000.0 nM
[12] = biological target: STE20-like serine/threonine-protein kinase (Homo sapiens) (UniProt Q9H2G2); conditions: Compound concentration 1000.0 nM
[13] = system: Hepatocyte growth factor receptor (Homo sapiens), P08581 [M1250T]; conditions: Compound concentration 1000.0 nM
[14] = biological target: Muscarinic acetylcholine receptor M4 (Homo sapiens) (UniProt P08173); conditions: Compound concentration 10.0 uM
[15] = system: Epidermal growth factor receptor (Homo sapiens), P00533 [UNDEFINED MUTATION]; conditions: Compound concentration 1000.0 nM
[16] = biological target: Protein kinase C epsilon type (Homo sapiens) (UniProt Q02156); conditions: Compound concentration 1000.0 nM
[17] = biological target: Calcium/calmodulin-dependent protein kinase kinase 1 (Homo sapiens) (UniProt Q8N5S9); conditions: Compound concentration 1000.0 nM
[18] = biological target: Dual specificity protein kinase CLK2 (Homo sapiens) (UniProt P49760); conditions: Compound concentration 1000.0 nM
[19] = biological target: Cyclin-G-associated kinase (Homo sapiens) (UniProt O14976); conditions: Compound concentration 1000.0 nM
[20] = biological target: Proto-oncogene tyrosine-protein kinase Src (Homo sapiens) (UniProt P12931); conditions: Compound concentration 1000.0 nM
[21] = biological target: Tyrosine-protein kinase ZAP-70 (Homo sapiens) (UniProt P43403); conditions: Compound concentration 1000.0 nM
[22] = biological target: MAP kinase-activated protein kinase 5 (Homo sapiens) (UniProt Q8IW41); conditions: Compound concentration 1000.0 nM
[23] = system: Receptor-type tyrosine-protein kinase FLT3 (Homo sapiens), P36888 [UNDEFINED MUTATION]; conditions: Compound concentration 1000.0 nM
[24] = biological target: Serine/threonine-protein kinase TBK1 (Homo sapiens) (UniProt Q9UHD2); conditions: Compound concentration 1000.0 nM
[25] = biological target: RAC-gamma serine/threonine-protein kinase (Homo sapiens) (UniProt Q9Y243); conditions: Compound concentration 1000.0 nM
[26] = biological target: Phosphatidylinositol 4,5-bisphosphate 3-kinase catalytic subunit gamma isoform (Homo sapiens) (UniProt P48736); conditions: Compound concentration 1000.0 nM
[27] = biological target: Aurora kinase C (Homo sapiens) (UniProt Q9UQB9); conditions: Compound concentration 1000.0 nM
[28] = biological target: Mu-type opioid receptor (Homo sapiens) (UniProt P35372); conditions: Compound concentration 10.0 uM
[29] = biological target: Serine/threonine-protein kinase 3 (Homo sapiens) (UniProt Q13188); conditions: Compound concentration 1000.0 nM
[30] = biological target: Serine/threonine-protein kinase 35 (Homo sapiens) (UniProt Q8TDR2); conditions: Compound concentration 1000.0 nM
[31] = biological target: Dual specificity tyrosine-phosphorylation-regulated kinase 2 (Homo sapiens) (UniProt Q92630); conditions: Compound concentration 1000.0 nM
[32] = biological target: Mitogen-activated protein kinase 7 (Homo sapiens) (UniProt Q13164); conditions: Compound concentration 1000.0 nM
[33] = biological target: Mitogen-activated protein kinase 10 (Homo sapiens) (UniProt P53779); conditions: Compound concentration 1000.0 nM
[34] = biological target: Calcium/calmodulin-dependent protein kinase type 1G (Homo sapiens) (UniProt Q96NX5); conditions: Compound concentration 1000.0 nM
[35] = biological target: RAC-beta serine/threonine-protein kinase (Homo sapiens) (UniProt P31751); conditions: Compound concentration 1000.0 nM
[36] = biological target: Cyclin-dependent kinase 4 (Homo sapiens) (UniProt P11802); conditions: Compound concentration 1000.0 nM
[37] = biological target: Cyclin-dependent kinase 7 (Homo sapiens) (UniProt P50613); conditions: Compound concentration 1000.0 nM
[38] = biological target: cAMP-dependent protein kinase catalytic subunit alpha (Homo sapiens) (UniProt P17612); conditions: Compound concentration 1000.0 nM
[39] = biological target: Calcium/calmodulin-dependent protein kinase type 1B (Homo sapiens) (UniProt Q6P2M8); conditions: Compound concentration 1000.0 nM
[40] = biological target: Activin receptor type-2A (Homo sapiens) (UniProt P27037); conditions: Compound concentration 1000.0 nM
[41] = biological target: Atypical kinase COQ8A, mitochondrial (Homo sapiens) (UniProt Q8NI60); conditions: Compound concentration 1000.0 nM
[42] = biological target: Calcium/calmodulin-dependent protein kinase type 1 (Homo sapiens) (UniProt Q14012); conditions: Compound concentration 1000.0 nM
[43] = biological target: Activin receptor type-1-like (Homo sapiens) (UniProt P37023); conditions: Compound concentration 1000.0 nM
[44] = biological target: 5-hydroxytryptamine receptor 2B (Homo sapiens) (UniProt P41595); conditions: Compound concentration 10.0 uM
[45] = system: Tyrosine-protein kinase ABL1 (Homo sapiens), P00519 [Q252H]; conditions: Compound concentration 1000.0 nM

Dual specificity protein kinase CLK2 (Homo sapiens), sequence (P49760 whole entry, looked up): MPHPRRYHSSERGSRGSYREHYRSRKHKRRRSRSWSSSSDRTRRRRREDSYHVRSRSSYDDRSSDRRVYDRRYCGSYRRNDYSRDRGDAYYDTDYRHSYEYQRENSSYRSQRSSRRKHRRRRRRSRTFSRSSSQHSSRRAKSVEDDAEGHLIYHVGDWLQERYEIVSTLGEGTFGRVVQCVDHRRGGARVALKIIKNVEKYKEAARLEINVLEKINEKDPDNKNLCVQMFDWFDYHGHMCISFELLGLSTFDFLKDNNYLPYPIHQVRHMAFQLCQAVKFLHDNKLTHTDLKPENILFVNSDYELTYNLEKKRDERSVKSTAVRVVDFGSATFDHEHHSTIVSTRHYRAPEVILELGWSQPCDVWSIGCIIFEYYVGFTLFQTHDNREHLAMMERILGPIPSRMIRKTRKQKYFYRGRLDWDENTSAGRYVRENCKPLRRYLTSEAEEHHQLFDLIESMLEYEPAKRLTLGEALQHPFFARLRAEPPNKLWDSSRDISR
Mitogen-activated protein kinase 7 (Homo sapiens), sequence (Q13164 2-816 limits assumed): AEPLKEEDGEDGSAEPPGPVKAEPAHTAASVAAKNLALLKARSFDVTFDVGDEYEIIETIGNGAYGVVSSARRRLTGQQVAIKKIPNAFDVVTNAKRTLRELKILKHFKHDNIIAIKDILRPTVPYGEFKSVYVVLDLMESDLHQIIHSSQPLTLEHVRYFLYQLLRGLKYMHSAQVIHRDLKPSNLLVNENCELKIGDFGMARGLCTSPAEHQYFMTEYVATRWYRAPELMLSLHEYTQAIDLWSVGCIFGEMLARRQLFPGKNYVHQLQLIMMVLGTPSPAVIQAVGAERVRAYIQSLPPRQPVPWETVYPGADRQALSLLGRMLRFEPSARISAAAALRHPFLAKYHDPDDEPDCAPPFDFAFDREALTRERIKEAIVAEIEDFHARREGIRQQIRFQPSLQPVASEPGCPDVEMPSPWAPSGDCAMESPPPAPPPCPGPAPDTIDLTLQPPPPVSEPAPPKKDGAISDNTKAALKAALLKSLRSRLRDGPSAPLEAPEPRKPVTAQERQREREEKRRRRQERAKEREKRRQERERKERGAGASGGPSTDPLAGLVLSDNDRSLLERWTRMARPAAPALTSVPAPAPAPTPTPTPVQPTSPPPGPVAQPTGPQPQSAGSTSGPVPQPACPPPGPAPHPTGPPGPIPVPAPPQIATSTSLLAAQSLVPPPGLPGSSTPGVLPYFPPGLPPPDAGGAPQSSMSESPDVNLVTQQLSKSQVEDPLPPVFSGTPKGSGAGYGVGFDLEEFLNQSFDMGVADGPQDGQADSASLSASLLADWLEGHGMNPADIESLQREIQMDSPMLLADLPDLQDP
Activin receptor type-1-like (Homo sapiens), sequence (P37023 whole entry): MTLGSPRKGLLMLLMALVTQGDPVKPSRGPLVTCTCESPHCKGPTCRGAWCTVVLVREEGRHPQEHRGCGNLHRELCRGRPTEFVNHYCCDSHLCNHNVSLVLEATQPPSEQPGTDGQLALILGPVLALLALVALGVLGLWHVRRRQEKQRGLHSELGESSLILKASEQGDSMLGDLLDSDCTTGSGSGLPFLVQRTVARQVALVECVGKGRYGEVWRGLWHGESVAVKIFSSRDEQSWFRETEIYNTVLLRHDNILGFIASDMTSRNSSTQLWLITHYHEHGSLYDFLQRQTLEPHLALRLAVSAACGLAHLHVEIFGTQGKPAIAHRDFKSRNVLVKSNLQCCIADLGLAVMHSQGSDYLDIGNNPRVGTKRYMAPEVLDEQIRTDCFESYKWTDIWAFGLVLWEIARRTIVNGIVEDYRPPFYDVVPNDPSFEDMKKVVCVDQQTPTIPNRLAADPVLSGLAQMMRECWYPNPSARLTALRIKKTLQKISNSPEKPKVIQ
Calcium/calmodulin-dependent protein kinase kinase 1 (Homo sapiens), sequence (Q8N5S9 whole entry, looked up): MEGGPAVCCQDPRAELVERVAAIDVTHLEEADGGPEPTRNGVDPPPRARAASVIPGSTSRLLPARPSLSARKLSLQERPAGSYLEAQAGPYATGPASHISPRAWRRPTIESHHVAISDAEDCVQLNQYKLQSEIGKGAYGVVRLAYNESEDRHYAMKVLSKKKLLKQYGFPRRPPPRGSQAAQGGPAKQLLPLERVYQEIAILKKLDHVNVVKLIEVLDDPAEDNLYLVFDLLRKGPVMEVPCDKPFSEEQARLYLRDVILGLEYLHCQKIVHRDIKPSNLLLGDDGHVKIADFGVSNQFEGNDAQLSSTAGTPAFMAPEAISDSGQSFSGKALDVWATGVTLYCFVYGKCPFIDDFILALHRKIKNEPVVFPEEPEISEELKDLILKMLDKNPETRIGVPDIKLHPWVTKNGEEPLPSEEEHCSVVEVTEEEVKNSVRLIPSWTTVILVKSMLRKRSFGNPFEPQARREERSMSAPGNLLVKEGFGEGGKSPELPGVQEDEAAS
Muscarinic acetylcholine receptor M4 (Homo sapiens), sequence (P08173 whole entry): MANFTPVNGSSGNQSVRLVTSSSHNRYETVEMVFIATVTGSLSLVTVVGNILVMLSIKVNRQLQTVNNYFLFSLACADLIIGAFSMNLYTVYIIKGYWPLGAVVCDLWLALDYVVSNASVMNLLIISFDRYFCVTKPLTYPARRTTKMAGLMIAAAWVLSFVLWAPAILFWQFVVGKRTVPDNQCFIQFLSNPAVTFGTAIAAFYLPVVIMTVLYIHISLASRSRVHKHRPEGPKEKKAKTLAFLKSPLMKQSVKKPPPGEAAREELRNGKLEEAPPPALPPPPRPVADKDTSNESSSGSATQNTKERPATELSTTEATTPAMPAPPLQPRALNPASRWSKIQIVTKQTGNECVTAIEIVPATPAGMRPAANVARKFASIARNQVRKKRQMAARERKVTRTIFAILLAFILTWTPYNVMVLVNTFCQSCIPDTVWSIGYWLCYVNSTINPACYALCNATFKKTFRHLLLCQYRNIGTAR
Proto-oncogene tyrosine-protein kinase Src (Homo sapiens), sequence (P12931 2-536 limits assumed): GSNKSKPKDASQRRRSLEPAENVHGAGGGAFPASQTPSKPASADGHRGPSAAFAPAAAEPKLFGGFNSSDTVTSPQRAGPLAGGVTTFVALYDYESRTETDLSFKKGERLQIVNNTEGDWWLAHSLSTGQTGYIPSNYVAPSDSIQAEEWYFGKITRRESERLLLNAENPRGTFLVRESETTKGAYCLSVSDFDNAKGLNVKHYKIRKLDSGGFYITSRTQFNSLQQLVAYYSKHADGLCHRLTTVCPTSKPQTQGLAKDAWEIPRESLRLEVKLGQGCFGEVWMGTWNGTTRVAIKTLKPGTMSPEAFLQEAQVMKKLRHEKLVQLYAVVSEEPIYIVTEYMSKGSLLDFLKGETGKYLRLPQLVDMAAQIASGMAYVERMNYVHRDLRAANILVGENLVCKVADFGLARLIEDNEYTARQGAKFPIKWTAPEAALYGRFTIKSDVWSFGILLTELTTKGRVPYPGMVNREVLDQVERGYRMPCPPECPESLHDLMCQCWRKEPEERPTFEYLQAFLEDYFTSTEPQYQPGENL
Dual specificity tyrosine-phosphorylation-regulated kinase 2 (Homo sapiens), sequence (Q92630 whole entry): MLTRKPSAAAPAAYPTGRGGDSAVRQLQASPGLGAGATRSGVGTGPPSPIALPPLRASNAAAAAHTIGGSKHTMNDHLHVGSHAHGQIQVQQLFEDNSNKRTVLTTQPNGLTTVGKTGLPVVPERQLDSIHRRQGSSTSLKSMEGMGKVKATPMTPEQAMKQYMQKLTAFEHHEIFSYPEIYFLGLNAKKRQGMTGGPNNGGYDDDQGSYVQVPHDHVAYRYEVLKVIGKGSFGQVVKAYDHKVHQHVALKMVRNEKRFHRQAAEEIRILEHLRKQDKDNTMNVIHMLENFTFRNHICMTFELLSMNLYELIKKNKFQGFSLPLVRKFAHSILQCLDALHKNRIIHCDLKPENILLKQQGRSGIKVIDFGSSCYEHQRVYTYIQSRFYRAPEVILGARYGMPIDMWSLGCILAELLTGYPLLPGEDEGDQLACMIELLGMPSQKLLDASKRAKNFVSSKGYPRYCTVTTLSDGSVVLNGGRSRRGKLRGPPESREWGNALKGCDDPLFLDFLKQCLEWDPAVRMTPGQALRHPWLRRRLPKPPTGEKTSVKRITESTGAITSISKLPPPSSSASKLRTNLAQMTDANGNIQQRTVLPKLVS
Myotonin-protein kinase (Homo sapiens), sequence (Q09013 whole entry): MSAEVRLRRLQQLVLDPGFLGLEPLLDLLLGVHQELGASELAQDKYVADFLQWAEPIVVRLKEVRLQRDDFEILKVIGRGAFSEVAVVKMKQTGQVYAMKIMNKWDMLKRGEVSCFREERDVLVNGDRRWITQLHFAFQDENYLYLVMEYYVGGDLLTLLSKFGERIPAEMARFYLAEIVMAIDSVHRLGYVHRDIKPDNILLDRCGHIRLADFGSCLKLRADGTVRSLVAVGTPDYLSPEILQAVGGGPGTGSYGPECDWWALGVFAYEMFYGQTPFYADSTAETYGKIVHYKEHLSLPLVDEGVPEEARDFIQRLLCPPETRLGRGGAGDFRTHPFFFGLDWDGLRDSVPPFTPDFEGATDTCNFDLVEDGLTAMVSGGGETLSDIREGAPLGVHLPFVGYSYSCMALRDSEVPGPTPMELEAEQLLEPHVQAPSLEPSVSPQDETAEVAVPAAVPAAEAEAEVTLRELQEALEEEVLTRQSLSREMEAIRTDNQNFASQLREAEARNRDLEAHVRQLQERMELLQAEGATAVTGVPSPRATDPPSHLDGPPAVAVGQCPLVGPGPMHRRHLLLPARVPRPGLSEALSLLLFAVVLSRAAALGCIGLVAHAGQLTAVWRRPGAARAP
Cyclin-dependent kinase 4 (Homo sapiens), sequence (P11802 whole entry): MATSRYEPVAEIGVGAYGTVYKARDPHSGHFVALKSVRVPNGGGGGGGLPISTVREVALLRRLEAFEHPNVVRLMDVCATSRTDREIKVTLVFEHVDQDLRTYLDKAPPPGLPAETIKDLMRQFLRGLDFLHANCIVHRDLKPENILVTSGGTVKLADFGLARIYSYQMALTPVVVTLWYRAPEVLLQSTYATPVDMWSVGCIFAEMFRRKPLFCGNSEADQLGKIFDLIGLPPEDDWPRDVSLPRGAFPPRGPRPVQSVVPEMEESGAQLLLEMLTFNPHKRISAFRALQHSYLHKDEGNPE

For `NS(=O)(=O)c1cc(NC(=O)C2(c3ccccc3Cl)CC2)ccc1Oc1cccc(Cl)c1` [BAY-207], the residual activity [1] was 79%, the residual activity [2] was 97% and the residual activity [3] was 100%. For the same compound, the residual activity [4] was 100%, the residual activity [5] was 100% and the residual activity [6] was 73%. For the same compound, the residual activity [7] was 100%, the residual activity [8] was 90% and the residual activity [9] was 100%. For the same compound, the residual activity [10] was 100%, the residual activity [11] was 70% and the residual activity [12] was 79%. For the same compound, the residual activity [13] was 68%, the inhibition [14] was -1.95% and the residual activity [15] was 46%. It also gave a residual activity [16] of 65%, a residual activity [17] of 100% and a residual activity [18] of 97%. For the same compound, the residual activity [19] was 76%, the residual activity [20] was 88% and the residual activity [21] was 100%. For the same compound, the residual activity [22] was 89%, the residual activity [23] was 100% and the residual activity [24] was 62%. For the same compound, the residual activity [25] was 79%, the residual activity [26] was 100% and the residual activity [27] was 63%. The inhibition [28] was 40.2%, the residual activity [29] was 94% and the residual activity [30] was 94%. The residual activity [31] was 81%, the residual activity [32] was 92% and the residual activity [33] was 100%. It also gave a residual activity [34] of 100%, a residual activity [35] of 100% and a residual activity [36] of 100%. For the same compound, the residual activity [37] was 82%, the residual activity [38] was 94% and the residual activity [39] was 100%. The residual activity [40] was 96%, the residual activity [41] was 100% and the residual activity [42] was 100%. For the same compound, the residual activity [43] was 45%, the inhibition [44] was 21.1% and the residual activity [45] was 71%.

In the case of `NS(=O)(=O)c1cc(NC(=O)Cc2ccccc2)ccc1Oc1cccc(Cl)c1` [BAY-1797], the residual activity [1] is reported as 100%, the residual activity [2] is reported as 100% and the residual activity [3] is reported as 84%. For the same compound, the residual activity [4] was 92%, the residual activity [5] was 74% and the residual activity [6] was 81%. It also gave a residual activity [7] of 97%, a residual activity [8] of 93% and a residual activity [9] of 86%. For the same compound, the residual activity [10] was 90%, the residual activity [11] was 80% and the residual activity [12] was 66%. It also gave a residual activity [13] of 99%, an inhibition [14] of 10.2% and a residual activity [15] of 58%. For the same compound, the residual activity [16] was 87%, the residual activity [17] was 100% and the residual activity [18] was 91%. It also gave a residual activity [19] of 99%, a residual activity [20] of 90% and a residual activity [21] of 87%. For the same compound, the residual activity [22] was 100%, the residual activity [23] was 79% and the residual activity [24] was 68%. It also gave a residual activity [25] of 100%, a residual activity [26] of 77% and a residual activity [27] of 100%. The inhibition [28] was 19.3%, the residual activity [29] was 78% and the residual activity [30] was 99%. It also gave a residual activity [31] of 100%, a residual activity [32] of 83% and a residual activity [33] of 89%. The residual activity [34] was 84%, the residual activity [35] was 100% and the residual activity [36] was 88%. The residual activity [37] was 64%, the residual activity [38] was 94% and the residual activity [39] was 83%. It also gave a residual activity [40] of 95%, a residual activity [41] of 94% and a residual activity [42] of 90%. For the same compound, the residual activity [43] was 99%, the inhibition [44] was 30.2% and the residual activity [45] was 55%.
